Our source for the IC50 values is patent US10669268B2, “Bicyclic derivatives” (Hoffmann-La Roche Inc., priority 2012, dated 2020).

Where a name gives a salt, the structure may show the parent alone.

The test concerns the target ATX (human His-tagged) (Homo sapiens (Human), UniProt Q13822). The test is described as follows: Human ATX enzyme inhibition assay (fluorescence quenching, MR121 substrate). The format is biochemical. Conditions: 30 nM ATX, 1 μM MR121 substrate, 30° C., pH 8.0. A digest of the protocol: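 Fluorescence-quenching assay using MR121 substrate at 1 μM final, incubated 15 min at 30 °C. Buffer was 50 mM Tris-HCl pH 8.0 with 140 mM NaCl, 5 mM KCl, 1 mM CaCl2, 1 mM MgCl2 and 0.01% Triton X-100.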

In general, IC50 refers to the concentration that inhibits the measured activity by half. High values mean lower potency, low ones higher potency. As to `O=C1NC2CCC(C(=O)N3CC4CCN(C(=O)/C=C/c5ccc(OC(F)(F)F)cc5)CCC4C3)CC2O1` (stereo in doubt) [Example 1.16, (3aSR,6SR,7aSR)-6-{(3aR,8aS)-6-[(E)-3-(4-trifluoromethoxy-phenyl)-acryloyl]-octahydro-pyrrolo[3,4-d]azepine-2-carbonyl}-hexahydro-benzooxazol-2-one], the half-inhibitory concentration (IC50) worked out at 382 nM.
The figure for `CCOc1cc(C(=O)N2C[C@@H]3CN(C(=O)c4ccc5[nH]nnc5c4F)C[C@H]3C2)nc2ccccc12` [Example 1.61, (4-ethoxyquinolin-2-yl)((3aS,6aS)-5-(4-fluoro-1H-benzo[d][1,2,3]triazole-5-carbonyl)hexahydropyrrolo[3,4-c]pyrrol-2(1H)-yl)methanone] is 21 nM; for `O=C(/C=C/c1ccc(OC(F)(F)F)cc1)N1CC[C@@H]2CN(C(=O)[C@@H]3Cc4[nH]cnc4CN3)C[C@@H]2CC1` [Example 18, (E)-3-[4-(Trifluoro-methoxy)-phenyl]-1-[(3aS,8aR)-2-((S)-4,5,6,7-tetrahydro-1H-imidazo[4,5-c]pyridine-6-carbonyl)-octahydro-pyrrolo[3,4-d]azepin-6-yl]-prop-2-en-1-one hydrochloride] it is 6740 nM.
In the case of `O=C(c1ccc2[nH]nnc2c1)N1C[C@@H]2CN(C(=O)c3cc4ccc(Cl)cc4[nH]3)C[C@@H]2C1` [Example 15.04], the IC50 stood at 2020 nM.
The same measure for `N#Cc1ccc(/C=C/C(=O)N2CC[C@@H]3CN(Cc4ccc5[nH]nnc5c4)C[C@@H]3CC2)cc1` [Example 6.05]: 179 nM; for `O=C(CCc1ccc(OC(F)(F)F)cc1)N1CC[C@@H]2CN(C(=O)c3ccc4[nH]nnc4c3)C[C@H]2C1` (relative stereo) [Example 17.15, 1-[trans-2-(1H-benzotriazole-5-carbonyl)-octahydro-pyrrolo[3,4-c]pyridin-5-yl]-3-(4-trifluoromethoxy-phenyl)-propan-1-one]: 47 nM.
As for `O=C(OCc1cc(Cl)cc(Cl)c1)N1C[C@@H]2CN(C(=O)C3CCc4[nH]nnc4C3)C[C@@H]2C1` (stereo partly drawn) [Example 1.13, (3aR,6aS)-3,5-dichlorobenzyl 5-(4,5,6,7-tetrahydro-1H-benzo[d][1,2,3]triazole-5-carbonyl)hexahydropyrrolo[3,4-c]pyrrole-2(1H)-carboxylate], the IC50 is 226 nM.
`CC(C)c1cc(C#N)ccc1OCC(=O)N1CC[C@@H]2CN(C(=O)c3ccc4[nH]nnc4c3)C[C@@H]2CC1` [Example 1.43, 4-[2-[(3aS,8aR)-2-(1H-benzotriazole-5-carbonyl)-1,3,3a,4,5,7,8,8a-octahydropyrrolo[3,4-d]azepin-6-yl]-2-oxoethoxy]-3-propan-2-ylbenzonitrile] registered a half-maximal inhibitory concentration (IC50) of 14 nM.
The same measure for `N#Cc1cc(Cl)cc(COC(=O)N2C[C@@H]3CN(C(=O)c4ccc5[nH]nnc5c4)C[C@@H]3C2)c1` [Example 4.24, (3aR,6aS)-3-chloro-5-cyanobenzyl 5-(1H-benzo[d][1,2,3]triazole-5-carbonyl)hexahydropyrrolo[3,4-c]pyrrole-2(1H)-carboxylate]: 56 nM.
The figure for `O=C(CCc1ccc(C(F)(F)F)cn1)N1C[C@@H]2CN(C(=O)c3ccc4[nH]nnc4c3)C[C@H]2C1` [Example 17.09, 1-[(3aR,6aR)-5-(1H-benzotriazole-5-carbonyl)-hexahydro-pyrrolo[3,4-c]pyrrol-2-yl]-3-(5-trifluoromethyl-pyridin-2-yl)-propan-1-one] is 58 nM; for `O=C(/C=C/c1ccc(OC(F)(F)F)cc1)N1CC[C@@H]2CN(C(=O)[C@H]3CCc4[nH]nnc4C3)C[C@@H]2CC1` [Example 1.20, (E)-1-[(3aS,8aR)-2-((S)-4,5,6,7-tetrahydro-1H-benzotriazole-5-carbonyl)-octahydro-pyrrolo[3,4-d]azepin-6-yl]-3-(4-trifluoromethoxy-phenyl)-prop-2-en-1-one] it is 83 nM.
The same measure for `O=C(OCc1cc(Cl)cc(Cl)c1)N1C[C@@H]2CN(C(=O)N3CCc4[nH]nnc4C3)C[C@@H]2C1` [Example 8, (3aR,6aS)-3,5-dichlorobenzyl 5-(4,5,6,7-tetrahydro-1H-[1,2,3]triazolo[4,5-c]pyridine-5-carbonyl)hexahydropyrrolo[3,4-c]pyrrole-2(1H)-carboxylate]: 108 nM.
On to `O=C(OCCC1C2CC3CC(C2)CC1C3)N1C[C@@H]2CN(C(=O)c3ccc4[nH]nnc4c3)C[C@@H]2C1` (stereo partly drawn) [Example 4.16, (3aS,6aR)-5-(1H-benzotriazole-5-carbonyl)-hexahydro-pyrrolo[3,4-c]pyrrole-2-carboxylic acid 2-adamantan-2-yl-ethyl ester], for which the half-maximal inhibitory concentration (IC50) was found to be 398 nM.
Compound `O=C(/C=C/c1cc(F)cc(C(F)(F)F)c1)N1C[C@@H]2CN(C(=O)c3ccc4[nH]nnc4c3)C[C@@H]2C1` [Example 15.02] yielded an IC50 of 96 nM.
In turn, `CC(C)Oc1cc(C(=O)N2C[C@@H]3CN(C(=O)[C@@H]4CCc5[nH]nnc5C4)C[C@H]3C2)cc2ccccc12` [Example 19.24, [(3aS,6aS)-5-[(5R)-4,5,6,7-tetrahydro-1H-benzotriazole-5-carbonyl]-1,3,3a,4,6,6a-hexahydropyrrolo[3,4-c]pyrrol-2-yl]-(4-propan-2-yloxynaphthalen-2-yl)methanone] returned an IC50 of 7 nM.
The figure for `O=C(/C=C/c1ccc(OC(F)(F)F)cc1)N1CC[C@@H]2CN(C(=O)c3ccc4nonc4c3)C[C@@H]2CC1` [Example 1.17, (E)-1-[(3aS,8aR)-2-(benzo[c][1,2,5]oxadiazole-5-carbonyl)-octahydro-pyrrolo[3,4-d]azepin-6-yl]-3-(4-trifluoromethoxy-phenyl)-prop-2-en-1-one] is 651 nM; for `O=C(CCc1ccc(OC(F)(F)F)cc1)N1C[C@@H]2CN(C(=O)c3ccc4[nH]c(=O)oc4c3)C[C@H]2C1` [Example 2.03, 6-[(3aR,6aR)-2-[3-[4-(trifluoromethoxy)phenyl]propanoyl]-1,3,3a,4,6,6a-hexahydropyrrolo[3,4-c]pyrrole-5-carbonyl]-3H-1,3-benzoxazol-2-one] it is 5 nM; for `Cc1ccc(C(C)C)c(OCC(=O)N2CC[C@@H]3CN(C(=O)c4ccc5[nH]nnc5c4)C[C@@H]3CC2)c1` [Example 15.97] it is 9 nM.
The figure for `O=C(COc1ccc(OC(F)(F)F)cc1)N1CC[C@@H]2CN(C(=O)c3ccc4[nH]nnc4c3)C[C@H]2C1` (relative stereo) [Example 1.25, 1-[trans-2-(1H-benzotriazole-5-carbonyl)-octahydro-pyrrolo[3,4-c]pyridin-5-yl]-2-(4-trifluoromethoxy-phenoxy)-ethanone] is 114 nM.
The figure for `O=C(c1ccc2[nH]nnc2c1)N1C[C@@H]2CN(S(=O)(=O)CCc3cccc(Cl)c3)C[C@@H]2C1` [Example 1.12, (1H-benzotriazol-5-yl)-{(3aS,6aR)-5-[2-(3-chloro-phenyl)-ethanesulfonyl]-hexahydro-pyrrolo[3,4-c]pyrrol-2-yl}-methanone] is 9260 nM; for `O=C(OCc1ccc(OC(F)(F)F)cc1)N1C[C@@H]2CN(C(=O)c3ccc4[nH]nnc4c3Cl)C[C@H]2C1` [Example 1.55, (3aS,6aS)-5-(4-chloro-1H-benzotriazole-5-carbonyl)-hexahydro-pyrrolo[3,4-c]pyrrole-2-carboxylic acid 4-trifluoromethoxy-benzyl ester] it is 14 nM.
